Measurements published in patent US5212075A, “Compositions and methods for introducing effectors to pathogens and cells” (priority 1991, dated 1993).

What was measured:
E. coli K1 pilA+::tetR = test: microbe, parasite or virus in culture; assay type: cell-based; conditions: for IC100: Escherichia coli, 0.05 h, read-out: Concentration causing total inhibition of yeast agglutination; for Relative Inhibitory Activity: concentration of methyl α-D-mannopyranoside divided by the concentration of the compound
Procedure: Compounds 4, 6-9 and 12 were assayed for bacterial receptor binding using agglutination studies with yeast cells and their inhibitory activity was compared to that of methyl α-D-mannopyranoside 13 (Firon et al. (1983) Carbohydrate Research 120:235; Eshdat et al. (1978) Biochem. Biophys. Res. Commun. 85:1551; and Firon et al. (1982) Biochem. Biophys. Res. Commun. 105:1426. The bacterial strain used in our study was a systemically invasive E. coli K1 pilA+::tetR strain that is responsible for sepsis and meningitis in human infants (Bloch et al. (1990) Infection and Immunity 58:275). A summary of the results is given in Table 2.
^a E. coli K1 pilA+::tetR were grown for 24 h at 37° C. on
solid LB media supplemented with tetracycline and were suspended with a
cotton swab in 4 mL of Dulbecco's PBS to a final dilution of 2 ×
10^8 cells/mL. Yeast (Saccharomyces cerevisiae, wild type) were grown
for 36 h on solid YPD media at 30° C. and were suspended with a
cotton swab in 4 mL of Dulbecco's PBS to a final dilution of 1 ×
10^8 cells mL. Protein concentrations were determined by BCA Protein
Assay (Pierce). Agglutination assays were performed on a 20 well ceramic
ring plate. Typically, 90 μl of a solution of the test compound was
combined with 30 μl of the bacterial suspension. After 30 seconds, 30
μl of the yeast suspension was added to give a final volume of 150
μl and the wells were allowed to develop for 3 min. with agitation. A
μl aliquot was removed from each well and spread onto a standard
microscope slide. The slides were quickly heat fixed and mounted with 10
μl of glycerol. The slides were examined under phase contrast at
500× magnification using a Zeiss Axioskip microscope. Agglutination
was observed as clusters of cells. total inhibition of agglutination was
determined by the observation of single cells only.
^b Concentration causing total inhibition of yeast agglutination.

E. coli cell = test: Localization of protein A-gold particles on the E. coli cell surface by transmission electron microscopy; assay type: cell-based; conditions: avidin, anti-avidin antibodies, protein A labelled with gold particles (15 nm); no localization without hybrid molecule
Excerpt: The particles were bound through a hybrid molecule consisting of a mannose binding moiety attached to biotin through a carbon linkage. Avidin, anti-avidin antibodies, and protein A labelled with the gold particles were exposed to cell and completed a bridge binding the gold particles. The location of a gold particle is shown by the arrow.
FIG. 6 is an electron micrograph showing a strain of E. coli, similar to that illustrated in FIG. 5, in the absence of the hybrid molecule. The cell was exposed to avidin, anti-avidin antibodies, and protein A labelled with gold particles. No localization of the gold particles was achieved without the hybrid molecules.
E coli cells bound with avidin, as described above, were sequentially exposed to anti-avidin antibodies and gold (15 nm) colloidal particles bound to protein A. It was expected that the gold would localize on the E. coli cell surface through an antibody-protein A bridge. Localization on bacterial pili was confirmed by transmission electron microscopy (TEM). The results are shown in FIG. 5 (typical gold particle shown by arrow) and FIG. 6 (control where E. coli cells incubated with protein A-gold without anti-avidin antibody).

complement (Clq) = test: Binding of complement (Clq) to anti-avidin (IgG2) bound to E. coli through the hybrid molecule
Excerpt: Clq binding is the first step in the complement cascase which is part of the humoral response.

Compound | IC100 (E. coli K1 pilA+::tetR) [µM] | Relative Inhibitory Activity (E. coli K1 pilA+::tetR) | further results
NCCC[C@H]1O[C@H](CO)[C@@H](O)[C@H](O)[C@@H]1O [Compound 7] | 40000 | 1.7 | –
O=C(CCCC[C@@H]1SC[C@@H]2NC(=O)N[C@@H]21)NCCC[C@H]1O[C@H](CO)[C@@H](O)[C@H](O)[C@@H]1O [Compound 9] | 7000 | 9.6 | Localization of gold particles on the E. coli surface (TEM) (E. coli cell): localization of gold particles on the surface of an E. coli cell; Clq binding to anti-avidin (IgG2) bound to E. coli (complement (Clq)): has also been shown
O=C(O)CC[C@H]1O[C@H](CO)[C@@H](O)[C@H](O)[C@@H]1O [Compound 6] | 47000 | 1.4 | –
OCCC[C@H]1O[C@H](CO)[C@@H](O)[C@H](O)[C@@H]1O [Compound 8] | 13000 | 5.2 | –
avidin: avidin alone, a soluble glycosylated protein used in place of streptavidin [reference compound] | – | – | Concentration causing total inhibition of yeast agglutination (E. coli K1 pilA+::tetR; E. coli K1 pilA+::tetR with Saccharomyces cerevisiae, 3 min, single cells only under phase contrast): 0.4 mM
O=[N+]([O-])c1ccc(O[C@H]2O[C@H](CO)[C@@H](O)[C@H](O)[C@@H]2O)cc1 [Compound 14, reference compound] | 1600 | 42 | –
CO[C@H]1O[C@H](CO)[C@@H](O)[C@H](O)[C@@H]1O [Compound 13, methyl α-D-mannopyranoside, reference compound] | 67000 | 1 | –
CCC[C@@H]1O[C@H](CO)[C@@H](O)[C@H](O)[C@@H]1O [Compound 12] | – | – | Inhibitory activity on agglutination (E. coli K1 pilA+::tetR; at a concentration of 100 mM): no inhibitory activity
CCC[C@H]1O[C@H](CO)[C@@H](O)[C@H](O)[C@@H]1O [Compound 4] | 7000 | 9.6 | –
